Source: ChEMBL document CHEMBL3638971, “Fused pyrimidines” (2015)
Where “and” joins values, the source holds several entries; their conditions need not be identical. Identical values can stand only once.

Legend:
[1] = biological target: RAC-alpha serine/threonine-protein kinase (Homo sapiens, UniProt P31749); assay: TR-FRET Assay: Akt1 inhibitory activity of compounds of the present invention may be quantified0 employing the Akt1 TR-FRET assay as described in the following paragraphs. His-tagged human recombinant kinase full-length Akt1 expressed in insect cells was purchased form Invitrogen (part number PV 3599). As substrate for the kinase reaction the biotinylated peptide biotin-Ahx-KKLNRTLSFAEPG (C-terminus in am- ide form) was used which can be purchased e.g. from the company Biosynthan GmbH (Berlin-Buch, Germany).For the assay 50 nl of a IOOfold concentrated solution of the test compound in DMSO was pipetted into a black low volume 384well microtiter plate (Greiner Bio- One, Frickenhausen, Germany), 2 ul of a solution of Akt1 in assay buffer [50 mM TRIS/HCI pH 7.5, 5 mM MgCI2, 1 mM dithiothreitol, 0.02% (v/v) Triton X-100 (Sigma)] were added and the mixture was incubated for 15 min at 22C to allow pre-binding of the test compounds to the enzyme before the start of the kinase reaction.
[2] = biological target: RAC-beta serine/threonine-protein kinase (Homo sapiens, UniProt P31751); assay: TR-FRET Assay: Akt2 inhibitory activity of compounds of the present invention was quantified employing the Akt2 TR-FRET assay as described in the following paragraphs.His-tagged human recombinant kinase full-length Akt2 expressed in insect cells and activated by PDK1 was purchased form Invitrogen (part number PV 3975). As substrate for the kinase reaction the biotinylated peptide biotin-Ahx- KKLNRTLSFAEPG (C-terminus in amide form) was used which can be purchased e.g. from the company Biosynthan GmbH (Berlinn-Buch, Germany). For the assay 50 nl of a 10Ofold concentrated solution of the test compound in DMSO was pipetted into a black low volume 384well microtiter plate (Greiner Bio- One, Frickenhausen, Germany), 2 ul of a solution of Akt2 in assay buffer [50 mM TRIS/HCI pH 7.5, 5 mM MgCI2, 1 mM dithiothreitol, 0.02% (v/v) Triton X-100 (Sigma)] were added and the mixture was incubated for 15 min at 22C to allow pre-binding of the test compounds to the enzyme before the start of the kinase reaction.
RAC-beta serine/threonine-protein kinase, sequence (P31751 whole entry): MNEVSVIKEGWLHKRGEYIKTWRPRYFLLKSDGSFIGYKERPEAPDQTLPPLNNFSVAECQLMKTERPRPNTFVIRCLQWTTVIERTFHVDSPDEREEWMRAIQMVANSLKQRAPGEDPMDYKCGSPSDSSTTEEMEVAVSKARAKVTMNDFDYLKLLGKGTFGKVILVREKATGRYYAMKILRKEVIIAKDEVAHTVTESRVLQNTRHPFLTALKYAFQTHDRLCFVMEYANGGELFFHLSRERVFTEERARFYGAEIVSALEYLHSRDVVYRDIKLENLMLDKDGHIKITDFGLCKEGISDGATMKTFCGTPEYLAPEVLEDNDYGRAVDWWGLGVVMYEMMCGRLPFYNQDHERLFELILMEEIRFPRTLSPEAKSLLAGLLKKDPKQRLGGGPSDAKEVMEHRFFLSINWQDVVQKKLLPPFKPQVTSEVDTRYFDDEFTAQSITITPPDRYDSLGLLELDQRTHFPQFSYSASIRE

RAC-alpha serine/threonine-protein kinase, sequence (P31749 whole entry): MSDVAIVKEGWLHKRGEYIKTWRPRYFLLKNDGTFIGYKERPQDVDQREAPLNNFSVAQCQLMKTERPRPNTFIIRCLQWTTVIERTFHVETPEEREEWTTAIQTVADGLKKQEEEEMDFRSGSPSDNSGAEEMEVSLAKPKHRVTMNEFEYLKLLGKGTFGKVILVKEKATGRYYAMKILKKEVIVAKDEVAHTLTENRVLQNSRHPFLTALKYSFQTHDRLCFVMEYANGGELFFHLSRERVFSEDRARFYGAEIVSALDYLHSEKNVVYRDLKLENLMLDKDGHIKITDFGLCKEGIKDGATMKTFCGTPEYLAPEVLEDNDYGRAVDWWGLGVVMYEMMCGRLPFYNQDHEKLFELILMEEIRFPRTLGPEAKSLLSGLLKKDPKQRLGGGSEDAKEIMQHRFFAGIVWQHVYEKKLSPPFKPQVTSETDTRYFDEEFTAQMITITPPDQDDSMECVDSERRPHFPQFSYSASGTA

Row | Structure (SMILES) | IC50 [1] | IC50 [2]
1 | Cc1nc2nc(-c3ccc(CN4CC(c5n[nH]c(-c6ccccn6)n5)C4)cc3)c(-c3ccccc3)c(C)n2n1 | 7 nM | 17 nM
2 | Cc1cccc(-c2nc(C3CN(Cc4ccc(-c5nc6nc(C)nn6c(C)c5-c5ccccc5)cc4)C3)n[nH]2)n1 | 10 nM | 8 nM
3 | Cc1nc2nc(-c3ccc(CN4CC(c5n[nH]c(-c6ccccn6)n5)C4)cc3)c(-c3ccccc3)c(NC3CCC3)n2n1 | 32 nM | 374 nM
4 | CNc1c(-c2ccccc2)c(-c2ccc(CN3CC(c4n[nH]c(-c5cccc(C)n5)n4)C3)cc2)nc2nc(C)nn12 | 11 nM | 21 nM
5 | Cc1nc2nc(-c3ccc(CN4CC(c5n[nH]c(-c6ccccn6)n5)C4)cc3)c(-c3ccccc3)c(NC(C)C)n2n1 | 15 nM and 9 nM | 31 nM and 20 nM
6 | CSc1nc2nc(-c3ccc(CN4CC(c5n[nH]c(-c6ccccn6)n5)C4)cc3)c(-c3ccccc3)cn2n1 | 5 nM | 100 nM
7 | CSc1nc2nc(-c3ccc(CN4CCC(c5n[nH]c(-c6ccccn6)n5)CC4)cc3)c(-c3ccccc3)cn2n1 | 7 nM | 12 nM
8 | CSc1nc2nc(-c3ccc(CN4CCC(c5n[nH]c(-c6cccc(C)n6)n5)CC4)cc3)c(-c3ccccc3)cn2n1 | 5 nM | 4 nM
9 | CS(=O)(=O)c1nc2nc(-c3ccc(CN4CCC(c5n[nH]c(-c6ccccn6)n5)CC4)cc3)c(-c3ccccc3)cn2n1 | 54 nM | 102 nM
